# Measurements from ChEMBL document CHEMBL4052810, “Synthesis and evaluation of vitamin D3 analogues with C-11 modifications as inhibitors of Hedgehog signaling” (Bioorg Med Chem Lett, 2017).
# Columns and labels:
# Mus musculus [1] = organism: Mus musculus; test: Inhibition of Hedgehog signaling pathway in mouse C3H10T1/2 cells assessed as reduction in oxysterol-induced Gli1 mRNA expression at 5 uM after 24 hrs by q-PCR analysis relative to oxysterol alone; format: cell-based
# [2] = (§1) Inhibition of Hedgehog signaling pathway in mouse C3H10T1/2 cells assessed as reduction in oxysterol-induced Gli1 mRNA expression after 24 hrs by q-PCR analysis; format: cell-based; conditions: C3H 10T1/2, 24 h
# Mus musculus [3] = organism: Mus musculus; test: as §1; format: cell-based
# [4] = biological target: T1, Cyp24A1 mRNA (readout of VDR activation) (Mus musculus, UniProt P48281); test: Activation of VDR in mouse C3H10T1/2 cells assessed as change in Cyp24A1 mRNA expression at 5 uM after 24 hrs by q-PCR analysis relative to control; format: ADME, cell-based; conditions: read-out: FC
# T1 sequence (P48281 whole entry): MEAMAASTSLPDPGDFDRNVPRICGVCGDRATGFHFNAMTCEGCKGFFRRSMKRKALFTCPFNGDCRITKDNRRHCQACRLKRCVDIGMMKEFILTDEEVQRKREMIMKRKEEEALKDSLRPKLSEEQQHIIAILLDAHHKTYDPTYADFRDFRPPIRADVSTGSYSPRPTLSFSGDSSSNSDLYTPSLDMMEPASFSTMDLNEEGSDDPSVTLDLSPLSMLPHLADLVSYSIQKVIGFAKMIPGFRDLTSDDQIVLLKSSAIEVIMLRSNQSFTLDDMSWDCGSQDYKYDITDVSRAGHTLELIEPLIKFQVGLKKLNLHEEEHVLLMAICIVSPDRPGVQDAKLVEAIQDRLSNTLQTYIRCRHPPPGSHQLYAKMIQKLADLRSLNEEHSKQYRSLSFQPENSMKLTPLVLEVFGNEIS
# [5] = Inhibition of Hedgehog signaling pathway in mouse ASZ001 cells assessed as reduction in oxysterol-induced Gli1 mRNA expression after 24 hrs by q-PCR analysis; format: cell-based; conditions: ASZ001, 24 h
# [6] = biological target: T1, Cyp24A1 mRNA (readout of VDR activation); test: Activation of VDR in mouse ASZ001 cells assessed as change in Cyp24A1 mRNA expression at 5 uM after 24 hrs by q-PCR analysis relative to control; format: ADME, cell-based; conditions: read-out: FC
SMILES,inhibition (Mus musculus [1]) [%],IC50 [2] [µM],inhibition (Mus musculus [3]),"fold induction at 24 h, 5 µM [4]",IC50 [5] [µM],"fold induction at 24 h, 5 µM [6]"
C#CCCC(=O)OCC[C@H]1C[C@H](OC(=O)c2cccc(O)c2)[C@@H]2CC[C@H]([C@H](C)CCCC(C)C)[C@@]2(C)C1,16,6.3,Dose-dependent effect,4.8,7.5,0.96
CC(C)CCC[C@@H](C)[C@H]1CC[C@H]2[C@@H](OC(=O)c3cccc(O)c3)C[C@H](Cc3ccccc3)C[C@]12C,85,–,–,3.6,–,–
CC[C@@H]1C[C@H](OC(=O)c2cccc(O)c2)[C@@H]2CC[C@H]([C@H](C)CCCC(C)C)[C@@]2(C)C1,2,0.92,Dose-dependent effect,3.6,5.2,1.3
CC(C)CCC[C@@H](C)[C@H]1CC[C@H]2[C@@H](OC(=O)c3cccc(O)c3)C[C@H](C3CCCCC3)C[C@]12C,92,–,–,2.8,–,–
CC(C)CCC[C@@H](C)[C@H]1CC[C@H]2[C@@H](OC(=O)c3cccc(O)c3)C[C@H](CCO)C[C@]12C,8.7,2,Dose-dependent effect,9,4.1,1.1
CC(C)CCC[C@@H](C)[C@H]1CC[C@H]2[C@@H](O)C[C@H](CCO)C[C@]12C,39,4.7,Dose-dependent effect,17,–,–
CC(C)CCC[C@@H](C)[C@H]1CC[C@H]2[C@@H](OC(=O)c3cccc(O)c3)C[C@H](c3ccccc3)C[C@]12C,71,–,–,2.3,–,–
CC(C)CCC[C@@H](C)[C@H]1CC[C@H]2[C@@H](Nc3ccc(O)cc3)C[C@H](CCO)C[C@]12C,1.1,2.7,Dose-dependent effect,7.2,1,2
C=C[C@H]1CC(=O)[C@@H]2CC[C@H]([C@H](C)CCCC(C)C)[C@@]2(C)C1,28,–,–,19,–,–
